Literature values in patent publication US20080085892A1, “Liquid dosage form of acetaminophen” (priority 2006, published 2008).

In the case of `COc1ccccc1OCC(O)CO` (centres unmarked) [Guaifenesin, 3-(2-methoxyphenoxy)-1,2-propanediol], the solubility in water is listed as “about 5 % wt” and the “solubility in water (in words)” value is listed as “slightly soluble”.
